According to PubChem BioAssay (NCI):
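Where inhibition never reached the appropriate level, the endpoint shown equals the highest concentration tested. Otherwise, values were interpolated linearly from a five-concentration, 48-hour dose response in 96-well plates. TGI denotes the concentration required for complete inhibition of growth.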

Tests used:
Test in all cases: NCI anticancer screen, dose series, 48 h
EKVX NSCLC = system: EKVX NSCLC
DMS 273 small cell lung = system: DMS 273 small cell lung
SW-620 colon = system: SW-620 colon
M14 melanoma = system: M14 melanoma
A549 NSCLC = system: A549 NSCLC
HCT-15 colon = system: HCT-15 colon
SF-295 CNS = system: SF-295 CNS
OVCAR-3 ovarian = system: OVCAR-3 ovarian
ACHN renal = system: ACHN renal
SF-268 CNS = system: SF-268 CNS
CAKI-1 renal = system: CAKI-1 renal
KM12 colon = system: KM12 colon
DLD-1 colon = system: DLD-1 colon
HCC-2998 colon = system: HCC-2998 colon
IGROV1 ovarian = system: IGROV1 ovarian
M19-MEL melanoma = system: M19-MEL melanoma
UACC-62 melanoma = system: UACC-62 melanoma
NCI-H522 lung = system: NCI-H522 lung
LXFL 529 NSCLC = system: LXFL 529 NSCLC
SK-MEL-28 melanoma = system: SK-MEL-28 melanoma
HOP-92 NSCLC = system: HOP-92 NSCLC
LOX IMVI melanoma = system: LOX IMVI melanoma
OVCAR-4 ovarian = system: OVCAR-4 ovarian
SF-539 CNS = system: SF-539 CNS
TK-10 renal = system: TK-10 renal
HT29 colon = system: HT29 colon
SK-MEL-5 melanoma = system: SK-MEL-5 melanoma
U251 CNS = system: U251 CNS
HOP-62 NSCLC = system: HOP-62 NSCLC
NCI-H23 lung = system: NCI-H23 lung
786-0 renal = system: 786-0 renal
NCI-H460 lung = system: NCI-H460 lung
UACC-257 melanoma = system: UACC-257 melanoma
HCT-116 colon = system: HCT-116 colon
OVCAR-8 ovarian = system: OVCAR-8 ovarian
SNB-19 CNS = system: SNB-19 CNS
SN12C renal = system: SN12C renal
SK-MEL-2 melanoma = system: SK-MEL-2 melanoma
UO-31 renal = system: UO-31 renal
MOLT-4 leukemia = system: MOLT-4 leukemia
CCRF-CEM leukemia = system: CCRF-CEM leukemia
HL-60(TB) leukemia = system: HL-60(TB) leukemia
MDA-MB-435 = system: MDA-MB-435
COLO 205 colon = system: COLO 205 colon
PC-3 prostate = system: PC-3 prostate
DU-145 prostate = system: DU-145 prostate
HS 578T breast = system: HS 578T breast
NCI-H226 lung = system: NCI-H226 lung
RPMI-8226 leukemia = system: RPMI-8226 leukemia
MCF7 breast = system: MCF7 breast
MDA-MB-231 breast = system: MDA-MB-231 breast
RXF 393 renal = system: RXF 393 renal
OVCAR-5 ovarian = system: OVCAR-5 ovarian
SR leukemia = system: SR leukemia
A498 renal = system: A498 renal
SK-OV-3 ovarian = system: SK-OV-3 ovarian
T-47D breast = system: T-47D breast
MDA-N = system: MDA-N
NCI/ADR-RES ovarian = system: NCI/ADR-RES ovarian
K-562 leukemia = system: K-562 leukemia
BT-549 breast = system: BT-549 breast
MALME-3M melanoma = system: MALME-3M melanoma

Compound: CCN(CC)C(=O)c1ccc(C)c(N=NN(C)C)c1
- TGI (EKVX NSCLC): > 100 µM
- TGI (DMS 273 small cell lung): > 100 µM
- TGI (SW-620 colon): > 100 µM
- TGI (M14 melanoma): > 100 µM
- TGI (A549 NSCLC): > 100 µM
- TGI (HCT-15 colon): > 100 µM
- TGI (SF-295 CNS): > 100 µM
- TGI (OVCAR-3 ovarian): > 100 µM
- TGI (ACHN renal): > 100 µM
- TGI (SF-268 CNS): > 100 µM
- TGI (CAKI-1 renal): > 100 µM
- TGI (KM12 colon): > 100 µM
- TGI (DLD-1 colon): > 100 µM
- TGI (HCC-2998 colon): > 100 µM
- TGI (IGROV1 ovarian): > 100 µM
- TGI (M19-MEL melanoma): > 100 µM
- TGI (UACC-62 melanoma): > 100 µM
- TGI (NCI-H522 lung): > 100 µM
- TGI (LXFL 529 NSCLC): > 100 µM
- TGI (SK-MEL-28 melanoma): > 100 µM
- TGI (HOP-92 NSCLC): > 100 µM
- TGI (LOX IMVI melanoma): > 100 µM
- TGI (OVCAR-4 ovarian): > 100 µM
- TGI (SF-539 CNS): > 100 µM
- TGI (TK-10 renal): > 100 µM
- TGI (HT29 colon): > 100 µM
- TGI (SK-MEL-5 melanoma): > 100 µM
- TGI (U251 CNS): > 100 µM
- TGI (HOP-62 NSCLC): > 100 µM
- TGI (NCI-H23 lung): > 100 µM
- TGI (786-0 renal): > 100 µM
- TGI (NCI-H460 lung): > 100 µM
- TGI (UACC-257 melanoma): > 100 µM
- TGI (HCT-116 colon): > 100 µM
- TGI (OVCAR-8 ovarian): > 100 µM
- TGI (SNB-19 CNS): > 100 µM
- TGI (SN12C renal): > 100 µM
- TGI (SK-MEL-2 melanoma): > 100 µM
- TGI (UO-31 renal): > 100 µM

Compound: CO/C=C(/C(=O)OC)c1ccccc1[C@H]1C[C@@H]1c1ccccc1
- TGI (EKVX NSCLC): 54.6 µM
- TGI (MOLT-4 leukemia): > 100 µM
- TGI (M14 melanoma): 68.8 µM
- TGI (A549 NSCLC): 83.8 µM
- TGI (CCRF-CEM leukemia): > 100 µM
- TGI (HL-60(TB) leukemia): 63.3 µM
- TGI (HCT-15 colon): 86.8 µM
- TGI (SF-295 CNS): 98.2 µM
- TGI (OVCAR-3 ovarian): 67.3 µM
- TGI (MDA-MB-435): 43.3 µM
- TGI (COLO 205 colon): 27.6 µM
- TGI (ACHN renal): 60.6 µM
- TGI (PC-3 prostate): > 100 µM
- TGI (DU-145 prostate): > 100 µM
- TGI (SF-268 CNS): 82.5 µM
- TGI (HS 578T breast): > 100 µM
- TGI (NCI-H226 lung): 74.4 µM
- TGI (CAKI-1 renal): 52.6 µM
- TGI (KM12 colon): 49 µM
- TGI (RPMI-8226 leukemia): 38.1 µM
- TGI (HCC-2998 colon): 76.2 µM
- TGI (MCF7 breast): > 100 µM
- TGI (IGROV1 ovarian): 58.1 µM
- TGI (UACC-62 melanoma): 37.2 µM
- TGI (NCI-H522 lung): 32 µM
- TGI (SK-MEL-28 melanoma): 64.2 µM
- TGI (HOP-92 NSCLC): 92.4 µM
- TGI (MDA-MB-231 breast): > 100 µM
- TGI (OVCAR-4 ovarian): 62.3 µM
- TGI (RXF 393 renal): > 100 µM
- TGI (SF-539 CNS): 42.7 µM
- TGI (TK-10 renal): > 100 µM
- TGI (HT29 colon): 56.5 µM
- TGI (OVCAR-5 ovarian): > 100 µM
- TGI (SK-MEL-5 melanoma): 20.8 µM
- TGI (U251 CNS): > 100 µM
- TGI (SR leukemia): 76.5 µM
- TGI (HOP-62 NSCLC): > 100 µM
- TGI (A498 renal): 87.2 µM
- TGI (NCI-H23 lung): > 100 µM
- TGI (786-0 renal): > 100 µM
- TGI (SK-OV-3 ovarian): 51.2 µM
- TGI (T-47D breast): 63.1 µM
- TGI (NCI-H460 lung): 88.6 µM
- TGI (MDA-N): 71.9 µM
- TGI (NCI/ADR-RES ovarian): 68.2 µM
- TGI (UACC-257 melanoma): 41.3 µM
- TGI (HCT-116 colon): 62.5 µM
- TGI (OVCAR-8 ovarian): > 100 µM
- TGI (SNB-19 CNS): > 100 µM
- TGI (SN12C renal): 90.3 µM
- TGI (SK-MEL-2 melanoma): 34.8 µM
- TGI (K-562 leukemia): > 100 µM
- TGI (BT-549 breast): 52.2 µM
- TGI (MALME-3M melanoma): 41.3 µM
- TGI (UO-31 renal): > 100 µM
